Experiments:
[1] = test system: ARE (Nrf2), pGL4.37 transfected HepG2 cells; test: ARE-driven luciferase reporter gene assay (Nrf2 transactivation); type: cell-based, human; settings: SFN 30 M
Experimental: To examine the possibility that ARE activation by Nrf2 is associated with HSCF extracts-mediated cytoprotection, pGL4.37 tranfected HepG2 cells (5×10^5 cells/well) were plated in 12-well overnight, serum starved for 12 hrs, and then subsequently exposed to 30-1000 μg/ml HSCF extracts for 18 hrs. ARE-driven luciferase activity was measured in the cell treated with HSCF extracts. […] The relative ARE-luciferase activities were 1.39±0.88, 1.62±1.08, 1.91±1.22, and 3.25±0.88 in […] HSCF extracts treated cells, respectively (FIG. 3).
ARE-driven reporter gene construct, pGL4.37 [luc2P/ARE/Hygro] was obtained from promega (Madison, Wis., USA). HepG2 cells were stably transfected with pGL4.37 plasmid using Fugene HD (Promega, Madison, Wis., USA) according to manufacturer's instruction and 80 µg/mL hygromycin was added to select the resistant colonies. The resistant colonies were pooled and used for reporter gene analysis. […] Luciferase activities in cell lysates were measured by adding luciferase assay reagent (Promega, Madison, Wis., USA) using […] automatic multimode reader (Model Infinite 200 PRO; Tecan, Männedorf, Switzerland). The relative luciferase activity was calculated as the relative change to protein content determined by bicinchoninic acid (BCA) method.

HepG2 cells = test: MTT assay, tBHP-induced cytotoxicity (cytoprotection); type: cell-based, human; settings: SFN 30 M pretreatment, 150 M tBHP

C[S+]([O-])CCCCN=C=S (centres unmarked) [SFN, Sulforaphane]
ARE-driven luciferase activity [1]: significantly increased luciferase activity
protection from tBHP-mediated cell death (HepG2 cells): significantly protected from tBHP-mediated cell death

Reference: patent US20180185431A1, “HOVENIAE SEMEN CUM FRUCTRUS EXTRACT COMPOSITIONS AND METHOD OF USE” (ARIBIO Co., Ltd., priority 2016, published 2018)
